Results on 25 molecules are retold here after US8759104B2, “Cationic lipids” (The University Court of the University of Edinburgh, priority 2010, dated 2014).

The assay relates to HeLa cells. Briefly: Transfection of pEGFP-C1 reporter plasmid into HeLa cells, GFP expression by flow cytometry. Format: cell-based, human. The conditions noted are these: HeLa cells 48 h after transfection with reporter plasmid, flow cytometry. As for the experimental part:
The corresponding cationic lipid (1 mM in methanol) were mixed in different proportions with DOPE (10 mg/mL in chloroform) and the organic solvent removed by evaporation in an oven (37° C.) overnight. The resultant thin films were then hydrated with PBS. The solutions were vortexed (10-20 s) and incubated at ambient temperature for 20 min. Plasmid DNA or siRNA solution (0.04 mg/mL in PBS or another isotonic solution) was subsequently added and the solution vortexed (10-20 s). The lipoplexes were incubated at room temperature for 20 min before being used.
Human HeLa cells were grown in RPMI supplemented with 4 mM glutamine, 10% FCS and 100 units/ml penicillin/streptomycin (RPMI-CM) until 80% confluence. HEK293 and B16F10 cells were grown in DMEM supplemented with 4 mM glutamine, 10% FCS and 100 units/ml penicillin/streptomycin (DMEM-CM) until 80% confluence. Cells were then suspended using trypsin/EDTA and counted. 2×10^4 cells in 150 μL of media per well were seeded in 96 well plates and incubated overnight. The day afterwards, the different lipoplex formulations were added. Each experiment was performed in quadruplicate, using Effectene® Transfection Reagent (Qiagen), Lipofectamine™ 2000 (Invitrogen) and Fugene (Roche) as positive controls and untreated cells as negative controls. After two days incubation at 37° C. and 5% CO2 (the change of media after transfection was not necessary), the green fluorescent protein (GFP) expression, as a consequence of transfecting the pEGFP-C1, was evidenced using a fluorescent microscope (Leica) and measured by flow cytometry. For the flow cytometry analysis, cells were washed twice with PBS, detached with trypsin/EDTA, harvested with 2% ferum bovine serum (FBS) in PBS, centrifuged and resuspended with 2% FBS in PBS and analyzed using a BD FACSaria flow cytometer. Transfection efficiency was measured as percentage of transfected cells.
Reagents that obtained greater than 50% transfection were also analyzed against HEK293 and B16F10 cell lines. Transfection results (+ percentages of transfection between 5-25%; ++ percentages of transfection between 25-50%; N.D. not determined). MTT toxicity assay results are indicated between brackets with 100% being cell viability of untreated cells.
For the molecule `CCCCCCCCCCCCCCCCCCCCCCCC(=O)NCCCN(CCCNC(=O)CCCCCCCCCCCCCCCCCCCCCCC)C(=O)/C=C\C(=O)N[C@@H](CCCNC(=N)N)C(=O)N[C@@H](CCCNC(=N)N)C(N)=O.O=C(O)C(F)(F)F.O=C(O)C(F)(F)F` [Compound A2-Sp4-L], the “Transfection results (percentage of transfected cells), HeLa” value is on record as “+ (percentages of transfection between 5-25%)”.
Then `CCCCCCCC/C=C\CCCCCCCC(=O)NCCN(CCNC(=O)CCCCCCC/C=C\CCCCCCCC)C(=O)/C=C\C(=O)N[C@@H](CCCNC(=N)N)C(=O)N[C@@H](CCCNC(=N)N)C(=O)N[C@@H](CCCNC(=N)N)C(N)=O.O=C(O)C(F)(F)F.O=C(O)C(F)(F)F.O=C(O)C(F)(F)F` [Compound A3-Sp2-O], with “++ (percentages of transfection between 25-50%)”.
Then `CCCCCCCCCCCCCCCCCCCC(=O)NCCN(CCNC(=O)CCCCCCCCCCCCCCCCCCC)C(=O)CCC(=O)N[C@@H](CCCNC(=N)N)C(N)=O.O=C(O)C(F)(F)F` [Compound A1-Sp1-A], with “+ (percentages of transfection between 5-25%)”; and `CCCCCCCCCCCCCCCCCC(=O)NCCN(CCNC(=O)CCCCCCCCCCCCCCCCC)C(=O)/C=C\C(=O)N[C@@H](CCCNC(=N)N)C(=O)N[C@@H](CCCNC(=N)N)C(N)=O.O=C(O)C(F)(F)F.O=C(O)C(F)(F)F` [Compound A2-Sp2-S], with “++ (percentages of transfection between 25-50%)”.
In the case of `CCCCCCCCCCCCCCCCCCCCCCCC(=O)NCCCN(CCCNC(=O)CCCCCCCCCCCCCCCCCCCCCCC)C(=O)CCC(=O)N[C@@H](CCCNC(=N)N)C(=O)N[C@@H](CCCNC(=N)N)C(N)=O.O=C(O)C(F)(F)F.O=C(O)C(F)(F)F` [Compound A2-Sp3-L], the “Transfection results (percentage of transfected cells), HeLa” value is reported as “+ (percentages of transfection between 5-25%)”.
For the molecule `CCCCCCCCCCCCCCCC(=O)NCCCN(CCCNC(=O)CCCCCCCCCCCCCCC)C(=O)CCC(=O)N[C@@H](CCCNC(=N)N)C(=O)N[C@@H](CCCNC(=N)N)C(=O)N[C@@H](CCCNC(=N)N)C(N)=O.O=C(O)C(F)(F)F.O=C(O)C(F)(F)F.O=C(O)C(F)(F)F` [Compound A3-Sp3-P], the “Transfection results (percentage of transfected cells), HeLa” value was “++ (percentages of transfection between 25-50%)”.
Then `CCCCCCCCCCCCCCCC(=O)NCCN(CCNC(=O)CCCCCCCCCCCCCCC)C(=O)/C=C\C(=O)N[C@@H](CCCNC(=N)N)C(N)=O.O=C(O)C(F)(F)F` [Compound A1-Sp2-P], with “++ (percentages of transfection between 25-50%)”; and `CCCCCCCCCCCCCCCCCC(=O)NCCN(CCNC(=O)CCCCCCCCCCCCCCCCC)C(=O)/C=C\C(=O)N[C@@H](CCCNC(=N)N)C(N)=O.O=C(O)C(F)(F)F` [Compound A1-Sp2-S], with “+ (percentages of transfection between 5-25%)”.
Under `CCCCCCCCCCCCCCCCCCCCCCCC(=O)NCCCN(CCCNC(=O)CCCCCCCCCCCCCCCCCCCCCCC)C(=O)/C=C\C(=O)N[C@@H](CCCNC(=N)N)C(=O)N[C@@H](CCCNC(=N)N)C(=O)N[C@@H](CCCNC(=N)N)C(N)=O.O=C(O)C(F)(F)F.O=C(O)C(F)(F)F.O=C(O)C(F)(F)F` [Compound A3-Sp4-L] stands “++ (percentages of transfection between 25-50%)”; under `CCCCCCCCCCCCCCCC(=O)NCCCN(CCCNC(=O)CCCCCCCCCCCCCCC)C(=O)CCC(=O)N[C@@H](CCCNC(=N)N)C(N)=O.O=C(O)C(F)(F)F` [Compound A1-Sp3-P], “+ (percentages of transfection between 5-25%)”.
Under `CCCCCCCCCCCCCCCCCCCC(=O)NCCCN(CCCNC(=O)CCCCCCCCCCCCCCCCCCC)C(=O)CCC(=O)N[C@@H](CCCNC(=N)N)C(N)=O.O=C(O)C(F)(F)F` [Compound A1-Sp3-A] stands “+ (percentages of transfection between 5-25%)”; under `CCCCCCCCCCCCCCCC(=O)NCCCN(CCCNC(=O)CCCCCCCCCCCCCCC)C(=O)/C=C\C(=O)N[C@@H](CCCNC(=N)N)C(N)=O.O=C(O)C(F)(F)F` [Compound A1-Sp4-P], “+ (percentages of transfection between 5-25%)”.
As for `CCCCCCCCCCCCCCCCCC(=O)NCCCN(CCCNC(=O)CCCCCCCCCCCCCCCCC)C(=O)CCC(=O)N[C@@H](CCCNC(=N)N)C(N)=O.O=C(O)C(F)(F)F` [Compound A1-Sp3-S], the “Transfection results (percentage of transfected cells), HeLa” value was “+ (percentages of transfection between 5-25%)”.
Then `CCCCCCCCCCCCCCCCCCCCCCCC(=O)NCCCN(CCCNC(=O)CCCCCCCCCCCCCCCCCCCCCCC)C(=O)CCC(=O)N[C@@H](CCCNC(=N)N)C(N)=O.O=C(O)C(F)(F)F` [Compound A1-Sp3-L], with “+ (percentages of transfection between 5-25%)”.
For the molecule `CCCCCCCCCCCCCCCCCCCCCCCC(=O)NCCN(CCNC(=O)CCCCCCCCCCCCCCCCCCCCCCC)C(=O)CCC(=O)N[C@@H](CCCNC(=N)N)C(=O)N[C@@H](CCCNC(=N)N)C(N)=O.O=C(O)C(F)(F)F.O=C(O)C(F)(F)F` [Compound A2-Sp1-L], the “Transfection results (percentage of transfected cells), HeLa” value is “+ (percentages of transfection between 5-25%)”.
Under `CCCCCCCCCCCCCCCCCCCC(=O)NCCN(CCNC(=O)CCCCCCCCCCCCCCCCCCC)C(=O)CCC(=O)N[C@@H](CCCNC(=N)N)C(=O)N[C@@H](CCCNC(=N)N)C(=O)N[C@@H](CCCNC(=N)N)C(N)=O.O=C(O)C(F)(F)F.O=C(O)C(F)(F)F.O=C(O)C(F)(F)F` [Compound A3-Sp1-A] stands “+ (percentages of transfection between 5-25%)”; under `CCCCCCCCCCCCCCCCCCCC(=O)NCCCN(CCCNC(=O)CCCCCCCCCCCCCCCCCCC)C(=O)CCC(=O)N[C@@H](CCCNC(=N)N)C(=O)N[C@@H](CCCNC(=N)N)C(=O)N[C@@H](CCCNC(=N)N)C(N)=O.O=C(O)C(F)(F)F.O=C(O)C(F)(F)F.O=C(O)C(F)(F)F` [Compound A3-Sp3-A], “+ (percentages of transfection between 5-25%)”; under `CCCCCCCCCCCCCCCCCC(=O)NCCN(CCNC(=O)CCCCCCCCCCCCCCCCC)C(=O)/C=C\C(=O)N[C@@H](CCCNC(=N)N)C(=O)N[C@@H](CCCNC(=N)N)C(=O)N[C@@H](CCCNC(=N)N)C(N)=O.O=C(O)C(F)(F)F.O=C(O)C(F)(F)F.O=C(O)C(F)(F)F` [Compound A3-Sp2-S], “++ (percentages of transfection between 25-50%)”.
Then `CCCCCCCCCCCCCCCCCCCC(=O)NCCCN(CCCNC(=O)CCCCCCCCCCCCCCCCCCC)C(=O)CCC(=O)N[C@@H](CCCNC(=N)N)C(=O)N[C@@H](CCCNC(=N)N)C(N)=O.O=C(O)C(F)(F)F.O=C(O)C(F)(F)F` [Compound A2-Sp3-A], with “+ (percentages of transfection between 5-25%)”; and `CCCCCCCC/C=C\CCCCCCCC(=O)NCCCN(CCCNC(=O)CCCCCCC/C=C\CCCCCCCC)C(=O)CCC(=O)N[C@@H](CCCNC(=N)N)C(=O)N[C@@H](CCCNC(=N)N)C(=O)N[C@@H](CCCNC(=N)N)C(N)=O.O=C(O)C(F)(F)F.O=C(O)C(F)(F)F.O=C(O)C(F)(F)F` [Compound A3-Sp3-O], with “++ (percentages of transfection between 25-50%)”.
Then `CCCCCCCCCCCCCCCCCCCC(=O)NCCN(CCNC(=O)CCCCCCCCCCCCCCCCCCC)C(=O)/C=C\C(=O)N[C@@H](CCCNC(=N)N)C(=O)N[C@@H](CCCNC(=N)N)C(N)=O.O=C(O)C(F)(F)F.O=C(O)C(F)(F)F` [Compound A2-Sp2-A], with “++ (percentages of transfection between 25-50%)”; and `CCCCCCCCCCCCCCCCCCCC(=O)NCCN(CCNC(=O)CCCCCCCCCCCCCCCCCCC)C(=O)/C=C\C(=O)N[C@@H](CCCNC(=N)N)C(N)=O.O=C(O)C(F)(F)F` [Compound A1-Sp2-A], with “+ (percentages of transfection between 5-25%)”.
As to `CCCCCCCCCCCCCCCC(=O)NCCCN(CCCNC(=O)CCCCCCCCCCCCCCC)C(=O)/C=C\C(=O)N[C@@H](CCCNC(=N)N)C(=O)N[C@@H](CCCNC(=N)N)C(N)=O.O=C(O)C(F)(F)F.O=C(O)C(F)(F)F` [Compound A2-Sp4-P], the “Transfection results (percentage of transfected cells), HeLa” value is given as “+ (percentages of transfection between 5-25%)”.
Under `CCCCCCCCCCCCCCCC(=O)NCCCN(CCCNC(=O)CCCCCCCCCCCCCCC)C(=O)/C=C\C(=O)N[C@@H](CCCNC(=N)N)C(=O)N[C@@H](CCCNC(=N)N)C(=O)N[C@@H](CCCNC(=N)N)C(N)=O.O=C(O)C(F)(F)F.O=C(O)C(F)(F)F.O=C(O)C(F)(F)F` [Compound A3-Sp4-P] stands “+ (percentages of transfection between 5-25%)”.
Regarding `CCCCCCCCCCCCCCCCCC(=O)NCCCN(CCCNC(=O)CCCCCCCCCCCCCCCCC)C(=O)/C=C\C(=O)N[C@@H](CCCNC(=N)N)C(N)=O.O=C(O)C(F)(F)F` [Compound A1-Sp4-S], the “Transfection results (percentage of transfected cells), HeLa” value is on record as “+ (percentages of transfection between 5-25%)”.
